Tests used:
[1] = Cytotoxicity against human PANC1 cells at 30 uM cultured in nutrient-deprived medium; format: functional; settings: PANC-1
[2] = Cytotoxicity against human PANC1 cells at 30 uM cultured in dulbecco's modified eagle's medium; format: functional; settings: PANC-1
[3] = Cytotoxicity against human PANC1 cells cultured in dulbecco's modified eagle's medium; format: functional, PANC-1
[4] = Cytotoxicity against human PANC1 cells cultured in nutrient-deprived medium; format: functional, PANC-1
[5] = Antitumor activity against human MIAPaCa2 cells xenografted in BALB/cAJcl-nu/nu mouse assessed as tumor volume at 7.5 mg/kg, ip measured every fourth day (reference value: 1917.6 +/- 280.3 mm3); format: functional, MIA PaCa-2
Mus musculus [6] = assay: Toxicity in BALB/cAJcl-nu/nu mouse xenografted with human MIAPaCa2 cells assessed as body weight loss at 7.5 mg/kg, ip measured every fifth day; format: organism-based, MIA PaCa-2; settings: in vivo
[7] = Antitumor activity against human MIAPaCa2 cells xenografted in BALB/cAJcl-nu/nu mouse assessed as reduction in tumor volume at 7.5 mg/kg, ip measured every fourth day relative to control; format: functional, MIA PaCa-2
[8] = Antitumor activity against human MIAPaCa2 cells xenografted in BALB/cAJcl-nu/nu mouse assessed as tumor volume at 8.02 mg/kg, ip measured every fourth day (reference value: 1917.6 +/- 280.3 mm3); format: functional, MIA PaCa-2
[9] = Antitumor activity against human MIAPaCa2 cells xenografted in BALB/cAJcl-nu/nu mouse assessed as reduction in tumor volume at 8.02 mg/kg, ip measured every fourth day relative to control; format: functional, MIA PaCa-2
Mus musculus [10] = assay: Toxicity in BALB/cAJcl-nu/nu mouse xenografted with human MIAPaCa2 cells assessed as body weight loss at 8.02 mg/kg, ip measured every fifth day; format: organism-based, MIA PaCa-2; settings: in vivo

Row | SMILES | inhibition at 30 µM [2] [%] | PC50 [4] [µM] | also measured
1 | S=C1c2c(c3ccccc3n2Cc2ccccc2)CCN1Cc1ccccc1 | < 50 | – | inhibition at 30 µM [1]: < 50%
2 | COc1ccc(Cn2c3c(c4ccccc42)CCN(Cc2ccccc2)C3=S)cc1 | < 50 | – | inhibition at 30 µM [1]: < 50%
3 | Oc1ccc(Cn2c3c(c4ccccc42)CCN(Cc2ccccc2)C3=S)cc1 | – | 1.68 | PC50 [3]: 20 µM
4 | S=C1c2c(c3ccccc3n2Cc2ccc(Cl)cc2)CCN1Cc1ccccc1 | < 50 | – | inhibition at 30 µM [1]: < 50%
5 | Oc1ccc(Cn2c3c(c4ccccc42)CCN(Cc2ccccc2)C3=S)cc1O | < 50 | 4.56 | –
6 | COc1cc(C[C@H]2C(=O)OC[C@@H]2Cc2ccc(OC)c(OC)c2)ccc1O [ARCTIGENIN] | < 50 | 1.27 | Activity [5]: 856.8 mm3; Activity (Mus musculus [6]): Non-toxic; fold change (FC) [7]: 2.2
7 | O=C1OCCc2c1n(Cc1cccc(O)c1)c1ccccc21 | – | 131.7 | –
8 | COc1cc(Cn2c3c(c4ccccc42)CCN(Cc2ccccc2)C3=S)ccc1O | – | 2.54 | PC50 [3]: 8.15 µM
9 | Fc1ccc(Cn2c3c(c4ccccc42)CCN(Cc2ccccc2)C3=S)cc1 | – | – | PC50 [3]: 152.6 µM; inhibition at 30 µM [1]: < 50%
10 | Oc1cccc(Cn2c3c(c4ccccc42)CCN(Cc2ccccc2)C3=S)c1 | < 50 | 1.96 | Activity [8]: 1203.9 mm3; fold change (FC) [9]: 1.6; Activity (Mus musculus [10]): Non-toxic
11 | COc1ccc(Cn2c3c(c4ccccc42)CCN(Cc2ccccc2)C3=S)cc1O | < 50 | 7.07 | –
12 | COc1cc(O)cc(Cn2c3c(c4ccccc42)CCN(Cc2ccccc2)C3=S)c1 | < 50 | 4.2 | –
13 | Oc1cccc(Cn2ccc3ccccc32)c1 | – | 173.7 | –
14 | O=C1c2c(c3ccccc3n2Cc2cccc(O)c2)CCN1Cc1ccccc1 | – | 44.8 | –
15 | Oc1ccccc1Cn1c2c(c3ccccc31)CCN(Cc1ccccc1)C2=S | < 50 | 2.23 | –
16 | Oc1cc(O)cc(Cn2c3c(c4ccccc42)CCN(Cc2ccccc2)C3=S)c1 | < 50 | 4.81 | –

Reference: ChEMBL document CHEMBL3808384, “Synthesis of new tricyclic thiolactams as potent antitumor agent for pancreatic cancer” (Bioorg Med Chem Lett, 2016)
